Key:
[1] = Binding affinity to His6-tagged TPR2A (unknown origin) assessed as reduction in fluorescein-labeled C-terminal Hsp90/TRP2A protein-protein interaction incubated for 2 hrs by fluorescence polarization assay; design: species or system Homo sapiens
[2] = test system: MCF7; assay: Antiproliferative activity against human MCF7 cells; format: functional, cell-based
[3] = test system: PANC-1; assay: Antitumor activity against human PANC1 cells xenografted in athymic mouse at 3 mg/kg, ip administered for 2 continuous days followed by 1 injection per 3 days and measured twice per week relative to control; format: functional; settings: PANC-1, ip, 72 h, read-out: GI
[4] = test system: PANC-1; assay: Antiproliferative activity against human PANC1 cells after 24 hrs by MTS assay; format: functional, cell-based; settings: PANC-1, 24 h
[5] = Binding affinity to His6-tagged TPR2A (unknown origin) by isothermal titration calorimetry; design: species or system Homo sapiens
[6] = test system: MCF7; assay: Antiproliferative activity against human MCF7 cells after 72 hrs by MTS/PMS assay; format: functional, cell-based; settings: MCF7, 72 h
[7] = target: T1, Heat shock protein HSP 90-alpha (Homo sapiens, UniProt P07900); assay: Inhibition of His6-tagged N-terminal human HSP90alpha expressed in Escherichia coli BL21 Lys cells preincubated for 10 mins followed by SA-APC and biotin-GM addition and measured after 6 hrs by TR-FRET assay
[8] = Antiproliferative activity against rat KNRK5.2 cells; format: functional, cell-based
[9] = target: Heat shock protein HSP 90-beta (Homo sapiens, UniProt P08238); assay: Inhibition of FITC-geldanamycin binding to recombinant human HSP90beta expressed in Escherichia coli preincubated for 2 hrs followed by Geldanamycin-FITC addition and measured after 5 hrs by fluorescence polarization competitive binding assay
[10] = target: T2, Endoplasmin (Homo sapiens, UniProt P14625); assay: Inhibition of FITC-geldanamycin binding to N-terminal His-tagged recombinant human GRP94 expressed in Escherichia coli preincubated for 2 hrs followed by Geldanamycin-FITC addition and measured after 5 hrs by fluorescence polarization competitive binding assay
[11] = target: T3, Heat shock protein 75 kDa, mitochondrial (Homo sapiens, UniProt Q12931); assay: Inhibition of FITC-geldanamycin binding to N-terminal His-tagged recombinant human TRAP1 (60 to 704 residues) expressed in Escherichia coli preincubated for 2 hrs followed by Geldanamycin-FITC addition and measured after 5 hrs by fluorescence polarization competitive binding assay
T3 sequence (Q12931 whole entry): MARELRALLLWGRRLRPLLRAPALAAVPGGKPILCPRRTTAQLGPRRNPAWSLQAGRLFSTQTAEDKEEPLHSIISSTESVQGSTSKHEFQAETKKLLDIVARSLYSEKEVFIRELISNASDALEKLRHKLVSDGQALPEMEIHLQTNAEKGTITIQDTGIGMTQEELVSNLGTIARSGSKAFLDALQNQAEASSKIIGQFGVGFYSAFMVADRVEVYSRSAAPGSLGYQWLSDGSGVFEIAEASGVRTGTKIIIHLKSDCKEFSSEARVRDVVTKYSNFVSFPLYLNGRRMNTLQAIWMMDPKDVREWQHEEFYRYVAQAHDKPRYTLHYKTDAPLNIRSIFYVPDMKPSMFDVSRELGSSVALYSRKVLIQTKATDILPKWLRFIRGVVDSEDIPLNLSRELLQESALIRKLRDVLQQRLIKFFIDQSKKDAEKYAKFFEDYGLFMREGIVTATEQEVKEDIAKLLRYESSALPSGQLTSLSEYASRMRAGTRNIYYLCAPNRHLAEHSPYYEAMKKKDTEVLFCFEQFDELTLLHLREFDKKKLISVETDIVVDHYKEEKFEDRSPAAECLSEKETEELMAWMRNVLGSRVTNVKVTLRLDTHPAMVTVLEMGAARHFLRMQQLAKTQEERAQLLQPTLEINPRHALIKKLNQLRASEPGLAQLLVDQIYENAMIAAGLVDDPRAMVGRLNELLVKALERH

[12] = target: T1, Heat shock protein HSP 90-alpha; assay: Inhibition of FITC-geldanamycin binding to recombinant human HSP90alpha expressed in Escherichia coli preincubated for 2 hrs followed by Geldanamycin-FITC addition and measured after 5 hrs by fluorescence polarization competitive binding assay
[13] = target: T2, Endoplasmin; assay: Displacement of FITC-geldanamycin from GRP94 (unknown origin) after 24 hrs by fluorescence polarization assay
[14] = test system: MDA-MB-231; assay: Antiproliferative activity against human MDA-MB-231 cells; format: functional, cell-based
[15] = test system: MV4-11; assay: Antiproliferative activity against human MV4-11 cells after 120 hrs by TopCount scintillation analysis; format: functional, cell-based; settings: MV4-11, 120 h
[16] = test system: NCI-H1299; assay: Antiproliferative activity against human NCI-H1299 cells incubated for 2 days followed by medium replacement by MTT assay; format: functional, cell-based; settings: NCI-H1299, 48 h
[17] = test system: PANC-1; assay: Antiproliferative activity against human PANC1 cells after 48 hrs by MTS assay; format: functional, cell-based; settings: PANC-1, 48 h
[18] = test system: BXPC-3; assay: Antiproliferative activity against human BxPC3 cells after 48 hrs by MTS assay; format: functional, cell-based; settings: BXPC-3, 48 h
[19] = test system: MIA PaCa-2; assay: Antiproliferative activity against human MIAPaCa2 cells after 48 hrs by MTS assay; format: functional, cell-based; settings: MIA PaCa-2, 48 h

T2 sequence (P14625 whole entry, the tested form may be a part): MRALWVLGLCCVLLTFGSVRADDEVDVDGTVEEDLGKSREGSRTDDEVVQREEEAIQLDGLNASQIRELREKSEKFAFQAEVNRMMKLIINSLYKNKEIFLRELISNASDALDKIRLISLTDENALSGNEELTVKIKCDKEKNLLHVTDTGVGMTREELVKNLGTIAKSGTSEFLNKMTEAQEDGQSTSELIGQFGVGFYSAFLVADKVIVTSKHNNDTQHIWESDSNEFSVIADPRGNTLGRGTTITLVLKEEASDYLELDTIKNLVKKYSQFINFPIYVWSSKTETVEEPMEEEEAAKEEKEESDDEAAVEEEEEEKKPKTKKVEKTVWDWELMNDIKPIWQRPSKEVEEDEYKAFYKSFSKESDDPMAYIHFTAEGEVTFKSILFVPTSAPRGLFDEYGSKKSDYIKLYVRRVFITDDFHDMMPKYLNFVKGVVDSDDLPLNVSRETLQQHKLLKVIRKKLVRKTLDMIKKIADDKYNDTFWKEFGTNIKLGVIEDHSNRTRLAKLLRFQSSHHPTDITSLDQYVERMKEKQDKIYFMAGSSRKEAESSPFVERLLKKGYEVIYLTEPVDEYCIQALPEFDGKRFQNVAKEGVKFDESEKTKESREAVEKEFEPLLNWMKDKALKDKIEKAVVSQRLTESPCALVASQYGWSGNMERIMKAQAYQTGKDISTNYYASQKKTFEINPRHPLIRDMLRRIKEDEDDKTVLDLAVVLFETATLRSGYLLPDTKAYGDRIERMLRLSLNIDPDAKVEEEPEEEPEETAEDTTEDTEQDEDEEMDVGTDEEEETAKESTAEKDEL
Chain of Heat shock protein HSP 90-beta (P08238 whole entry): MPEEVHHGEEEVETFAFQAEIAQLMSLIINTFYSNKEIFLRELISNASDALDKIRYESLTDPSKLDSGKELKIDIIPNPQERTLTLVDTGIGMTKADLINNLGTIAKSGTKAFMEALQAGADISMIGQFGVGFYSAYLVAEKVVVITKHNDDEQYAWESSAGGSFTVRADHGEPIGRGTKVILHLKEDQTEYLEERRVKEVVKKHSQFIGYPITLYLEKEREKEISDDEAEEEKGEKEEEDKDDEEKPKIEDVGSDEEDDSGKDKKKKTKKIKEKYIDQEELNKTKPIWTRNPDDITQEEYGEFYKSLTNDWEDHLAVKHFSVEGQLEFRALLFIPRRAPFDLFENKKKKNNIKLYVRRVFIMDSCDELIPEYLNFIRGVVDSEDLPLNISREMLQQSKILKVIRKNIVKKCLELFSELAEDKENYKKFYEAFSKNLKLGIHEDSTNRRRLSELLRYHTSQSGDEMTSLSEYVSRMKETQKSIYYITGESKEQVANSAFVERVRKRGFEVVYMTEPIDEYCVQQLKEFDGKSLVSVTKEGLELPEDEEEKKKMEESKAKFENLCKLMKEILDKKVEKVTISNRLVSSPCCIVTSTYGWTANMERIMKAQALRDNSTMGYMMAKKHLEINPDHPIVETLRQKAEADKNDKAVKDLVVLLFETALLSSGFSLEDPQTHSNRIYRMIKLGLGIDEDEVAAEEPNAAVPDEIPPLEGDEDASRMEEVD

## CCn1nc(-c2cccs2)nc2c(=O)n(C)c(=O)nc1-2
[1]
  Kd: 0.308 µM

## CO[C@@H]1[C@@H](OC(N)=O)[C@@H](O)[C@H](Oc2ccc3c(O)c(NC(=O)c4ccc(O)c(CC=C(C)C)c4)c(=O)oc3c2C)OC1(C)C [NOVOBIOCIN]
[2]
  IC50: 256 µM

## Cn1nc(Cc2ccccc2)nc2c(=O)n(C)c(=O)nc1-2
[1]
  Kd: 0.566 µM

## CC1=C(O)C(=O)C=C2C1=CC=C1[C@@]2(C)CC[C@@]2(C)[C@@H]3C[C@](C)(C(=O)O)CC[C@]3(C)CC[C@]12C [CELASTROL]
[3]
  inhibition in vivo at 3 mg/kg: 80%
[4]
  IC50: 3 µM

## Cc1nc2c(=O)n(C)c(=O)nc-2n(C)n1
[1]
  Kd: 0.365 µM
[5]
  Kd: 16 µM

## CC(C)=CCc1c(O)cc2occ(-c3ccc(Cl)c(Cl)c3)c(=O)c2c1O
[6]
  IC50: 7.3 µM

## COc1cccc(C(=O)NC2CC3CCC(C2)N3c2ccc(C(N)=O)cn2)c1C (stereo unspecified)
[7]
  IC50: 0.641 µM

## C[C@@H]1C[C@H]2O[C@@H]2\C=C/C=C/C(=N\O)Cc2c(Cl)c(O)cc(O)c2C(=O)O1
[8]
  IC50: 0.039 µM

## Cn1nc(-c2ccccc2)nc2c(=O)n(C)c(=O)nc1-2
[1]
  Kd: 1.04 µM

## CCn1nc(-c2ccccc2)nc2c(=O)n(C)c(=O)nc1-2
[1]
  Kd: 0.928 µM

## CCc1cc(C(N)=O)ccc1-n1nc(C(C)C)c2c(-n3cnc(-c4cnn(C)c4)c3)ccnc21 [TAS-116]
[9]
  Ki: 0.0213 µM
[10]
  Ki: > 50 µM
[11]
  Ki: > 50 µM
[12]
  Ki: 0.0347 µM

## CC(C)c1cc(C(=O)N2Cc3ccccc3C2)c(O)c2cnoc12
[13]
  Kd: 8.48 µM

## CC(C)NCCCn1c(Sc2cc3c(cc2I)OCO3)nc2c(N)ncnc21 [PU-H71]
[2]
  IC50: 0.09 µM

## CCCc1nc2c(=O)n(C)c(=O)nc-2n(C)n1
[14]
  IC50: 1.75 µM
[1]
  Kd: 0.202 µM

## COc1c(C)cnc(Cn2cnc3c(Cl)nc(N)nc32)c1C [BIIB021]
[2]
  IC50: 0.31 µM

## CN(C)c1cc2c(cc1Sc1nc3c(N)nccc3n1CCNCC(C)(C)C)OCO2 [CUDC-305]
[15]
  IC50: 0.1 µM

## COc1ccc(CC(=O)c2ccc3c(c2OC)C=CC(C)(C)O3)cc1OC
[16]
  IC50: 0.14 µM

## CC1=C(CO)C(=O)O[C@@H]([C@@H](C)[C@H]2CC[C@H]3[C@@H]4C[C@H]5O[C@]56[C@@H](O)C=CC(=O)[C@]6(C)[C@H]4CC[C@]23C)C1 [WITHAFERIN A]
[17]
  IC50: 1.24 µM
[18]
  IC50: 2.78 µM
[19]
  IC50: 2.93 µM
